The record followed here is patent US20260159497A1, “SOLID FORMS OF A COMPLEMENT FACTOR B INHIBITOR” (Novartis Pharma AG, priority 2022, published 2026).

Read-outs that look alike come from different tables or passages of the source.

Series [1] is described as follows: Flow properties. In kind it is physicochemical. An excerpt:
See U.S. Pat. No. 11,642,315.

Series [2] is described as follows: Pharmacokinetic study after oral dosing, rat. In kind it is in vivo, SD Rat. The settings on record: for Cmax / AUC(0-t) / concentration at 24 h: male, SD (Sprague-Dawley), rat, in vivo, po, oral, suspension in 0.5% methocel + 0.1% tween 80 in water, SD Rat male, Fed, 5 mL/kg; for AUC(0-t): read-out: AUC0-24 h; for concentration at 24 h: read-out: C24 h. As for the experimental part: The pharmacokinetic profile of (S)-4-(2,2-difluoro-7-((5-methoxy-7-methyl-1H-indol-4-yl)methyl)-7-azaspiro[3.5]nonan-6-yl)benzoic acid was assessed in rats, dogs or non-human primates (NHPs) as the amorphous compound as a solution in 20% kleptose in water and as a suspension of Form A in 0.5% methocel+0.1% tween 80 in water.
Amorphous (S)-4-(2,2-difluoro-7-((5-methoxy-7-methyl-1H-indol-4-yl)methyl)-7-azaspiro[3.5]nonan-6-yl)benzoic acid was weighed into a glass vial with a magnetic stir bar to give formulations at dose concentrations of 0.1-1000 mg/kg. Approx. ⅓ the final volume of 20% kleptose (hydroxypropyl β-cyclodextrin, Aldrich, CAS #128446-35-5) in water was added to the vial (to afford either a 5 mL/kg or 10 mL/kg dose volume, depending on the species). The mixture was basified to a pH of 8.5 to 10 using dropwise addition of 2-5 M aqueous NaOH solution, with pH monitoring. The suspension was stirred, vortexed, and sonicated for 15-20 minutes to afford a homogenous mixture. The second ⅓ of the final volume of 20% kleptose was added to the vial and further stirred, vortexed, and sonicated for 15-20 minutes to afford a homogenous mixture. The pH was monitored and further pH adjustment to pH 8.5 to 10, if necessary, can be applied. The final ⅓ the final volume of 20% kleptose was added to the vial and further stirred, vortexed, and sonicated for 15-20 minutes to afford a homogenous solution. The pH of the solution was adjusted to a pH of 7.5 to 8.0 with dropwise addition of 1.0 M aqueous HCl solution with gentle stirring. The formulation should remain in solution.
Form A crystalline (S)-4-(2,2-difluoro-7-((5-methoxy-7-methyl-1H-indol-4-yl)methyl)-7-azaspiro[3.5]nonan-6-yl)benzoic acid was weighed into a glass vial with a magnetic stir bar to give formulations at dose concentrations of 0.1-1000 mg/kg. The crystalline material should preferably have a particle size with a D50 below 50 μm, and ideally with a D50 below 5 μm. The desired volume of 0.5% methocel (viscosity 400 cP, Aldrich, CAS #9004-67-5)/0.1% tween-80 (Aldrich, CAS #9005-65-6) was added (to afford a 5 mL/kg dose volume). The contents of the vial were stirred at 400-500 rpm on a stir-plate. Gentle vortex or bath sonication can be applied to break down any large clumps. The vial should be mixed well to ensure homogeneity right before animal dosing.

Where [3] appears, read: 30 mg/kg, 30 mg/kg, particle size D50 = 5.1 μm.
The mark [4] stands for this setting: 300 mg/kg, 300 mg/kg, particle size D50 = 5.1 μm.
The mark [5] stands for this setting: 300 mg/kg, 300 mg/kg, particle size D50 = 101 μm.

For `COc1cc(C)c2[nH]ccc2c1CN1CCC2(C[C@H]1c1ccc(C(=O)O)cc1)CC(F)(F)C2.Cc1ccc(S(=O)(=O)O)cc1` [Form B, (S)-4-(2,2-difluoro-7-((5-methoxy-7-methyl-1H-indol-4-yl)methyl)-7-azaspiro[3.5]nonan-6-yl)benzoic acid p-toluene sulfonate], in series [1], the bulk density result is given as “good bulk density” and the flowability result is given as “good flowability”.
Consider `COc1cc(C)c2[nH]ccc2c1CN1CCC2(C[C@H]1c1ccc(C(=O)O)cc1)CC(F)(F)C2` [Form A, (S)-4-(2,2-difluoro-7-((5-methoxy-7-methyl-1H-indol-4-yl)methyl)-7-azaspiro[3.5]nonan-6-yl)benzoic acid], for which, in series [2] (setting [3]), the Cmax worked out at 6.1 µM, the AUC(0-t) amounted to 79.2 µM·h and the concentration at 24 h was 1.9 µM. For the same compound, in series [2] (setting [4]), the maximum concentration (Cmax) was found to be 157 µM, the AUC(0-t) is 958 µM·h and the concentration at 24 h was found to be 3.3 µM. For the same compound, in series [2] (setting [5]), the Cmax was found to be 80 µM, the AUC(0-t) was found to be 547 µM·h and the concentration at 24 h amounted to 2.7 µM. For the same compound, the “Cmax, AUC0-24 and C24h compared with the amorphous form” value in series [2] (oral dosing, smaller particle size) is given as “higher”.

Broadly, the Cmax is the peak of the concentration-time curve.
